Key:
PIM2 = target: T1, PIM2 (Homo sapiens, UniProt Q9P1W9); assay: KINOMEscan; assay type: binding; conditions: read-out: %Ctrl @ 10000nM
T1 construct: purchased DiscoverX KINOMEscan

PIP5K2B = target: T2, PIP5K2B (Homo sapiens, UniProt P78356); assay: KINOMEscan; assay type: binding; conditions: read-out: %Ctrl @ 10000nM
T2 construct: purchased DiscoverX KINOMEscan

PIK3CG = target: T3, PIK3CG (Homo sapiens, UniProt P48736); assay: KINOMEscan; assay type: binding; conditions: read-out: %Ctrl @ 10000nM
T3 construct: purchased DiscoverX KINOMEscan

MLK1 = target: T4, MLK1 (Homo sapiens, UniProt P80192); assay: KINOMEscan; assay type: binding; conditions: read-out: %Ctrl @ 10000nM
T4 construct: purchased DiscoverX KINOMEscan

Plasma stability = assay type: in vitro ADME; conditions: mouse, read-out: Plasma Stability T1/2
FRK = target: T5, FRK (Homo sapiens, UniProt P42685); assay: KINOMEscan; assay type: binding; conditions: read-out: %Ctrl @ 10000nM
T5 construct: purchased DiscoverX KINOMEscan

CLK2 = target: T6, CLK2 (Homo sapiens, UniProt P49760); assay: KINOMEscan; assay type: binding; conditions: read-out: %Ctrl @ 10000nM
T6 construct: purchased DiscoverX KINOMEscan

TGFBR1 = target: T7, TGFBR1 (Homo sapiens, UniProt P36897); assay: KINOMEscan; assay type: binding; conditions: read-out: %Ctrl @ 10000nM
T7 construct: purchased DiscoverX KINOMEscan

[1] = target: T8, RSK1(Kin.Dom.1-N-terminal) (Homo sapiens, UniProt Q15418); assay: KINOMEscan; assay type: binding; conditions: read-out: %Ctrl @ 10000nM
T8 construct: RSK1(Kin.Dom.1-N-terminal); purchased DiscoverX KINOMEscan
T8 sequence (Q15418 1-391 limits assumed): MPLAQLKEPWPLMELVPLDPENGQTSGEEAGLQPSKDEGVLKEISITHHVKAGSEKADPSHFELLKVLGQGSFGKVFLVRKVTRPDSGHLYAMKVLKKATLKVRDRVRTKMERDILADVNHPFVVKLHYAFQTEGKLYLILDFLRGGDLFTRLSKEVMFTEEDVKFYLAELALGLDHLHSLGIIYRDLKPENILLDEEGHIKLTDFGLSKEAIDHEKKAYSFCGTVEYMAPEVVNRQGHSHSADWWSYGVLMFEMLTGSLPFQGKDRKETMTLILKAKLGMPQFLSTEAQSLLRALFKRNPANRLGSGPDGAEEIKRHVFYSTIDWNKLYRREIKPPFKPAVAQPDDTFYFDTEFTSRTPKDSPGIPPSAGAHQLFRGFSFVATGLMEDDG

INSRR = target: T9, INSRR (Homo sapiens, UniProt P14616); assay: KINOMEscan; assay type: binding; conditions: read-out: %Ctrl @ 10000nM
T9 construct: purchased DiscoverX KINOMEscan

EGFR(L861Q) = target: T10, EGFR(L861Q) (Homo sapiens, UniProt P00533, L861Q); assay: KINOMEscan; assay type: binding; conditions: read-out: %Ctrl @ 10000nM
T10 construct: purchased DiscoverX KINOMEscan

MLK3 = target: T11, MLK3 (Homo sapiens, UniProt Q16584); assay: KINOMEscan; assay type: binding; conditions: read-out: %Ctrl @ 10000nM
T11 construct: purchased DiscoverX KINOMEscan

ABL1-nonphosphorylated = target: T12, ABL1-nonphosphorylated (Homo sapiens, UniProt P00519); assay: KINOMEscan; assay type: binding; conditions: read-out: %Ctrl @ 10000nM
T12 construct: purchased DiscoverX KINOMEscan

PRKD3 = target: T13, PRKD3 (Homo sapiens, UniProt O94806); assay: KINOMEscan; assay type: binding; conditions: read-out: %Ctrl @ 10000nM
T13 construct: purchased DiscoverX KINOMEscan
T13 sequence (O94806 whole entry): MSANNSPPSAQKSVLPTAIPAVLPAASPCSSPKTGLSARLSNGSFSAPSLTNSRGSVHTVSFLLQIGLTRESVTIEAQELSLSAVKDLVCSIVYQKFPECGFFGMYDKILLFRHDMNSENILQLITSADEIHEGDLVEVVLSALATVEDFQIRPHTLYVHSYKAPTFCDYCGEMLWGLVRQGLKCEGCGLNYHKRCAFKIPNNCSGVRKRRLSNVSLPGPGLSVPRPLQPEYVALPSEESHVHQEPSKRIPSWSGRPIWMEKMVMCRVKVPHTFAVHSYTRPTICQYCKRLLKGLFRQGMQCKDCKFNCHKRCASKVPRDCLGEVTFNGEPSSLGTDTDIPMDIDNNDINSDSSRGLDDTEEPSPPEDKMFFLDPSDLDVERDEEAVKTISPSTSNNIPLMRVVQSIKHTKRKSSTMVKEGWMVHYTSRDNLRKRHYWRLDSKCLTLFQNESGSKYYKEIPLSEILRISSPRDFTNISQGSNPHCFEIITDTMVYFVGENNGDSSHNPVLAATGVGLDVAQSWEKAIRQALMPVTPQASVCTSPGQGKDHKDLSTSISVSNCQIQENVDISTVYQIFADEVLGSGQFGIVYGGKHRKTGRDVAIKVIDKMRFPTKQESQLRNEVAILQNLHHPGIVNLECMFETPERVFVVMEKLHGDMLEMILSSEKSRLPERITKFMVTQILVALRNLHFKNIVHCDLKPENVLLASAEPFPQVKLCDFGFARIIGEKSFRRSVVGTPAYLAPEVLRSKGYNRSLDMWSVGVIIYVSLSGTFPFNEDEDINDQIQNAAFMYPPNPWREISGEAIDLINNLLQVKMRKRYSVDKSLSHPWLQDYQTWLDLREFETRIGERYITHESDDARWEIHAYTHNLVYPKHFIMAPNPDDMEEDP

CDK5 = target: T14, CDK5 (Homo sapiens, UniProt Q00535); assay: KINOMEscan; assay type: binding; conditions: read-out: %Ctrl @ 10000nM
T14 construct: purchased DiscoverX KINOMEscan
T14 sequence (Q00535 whole entry): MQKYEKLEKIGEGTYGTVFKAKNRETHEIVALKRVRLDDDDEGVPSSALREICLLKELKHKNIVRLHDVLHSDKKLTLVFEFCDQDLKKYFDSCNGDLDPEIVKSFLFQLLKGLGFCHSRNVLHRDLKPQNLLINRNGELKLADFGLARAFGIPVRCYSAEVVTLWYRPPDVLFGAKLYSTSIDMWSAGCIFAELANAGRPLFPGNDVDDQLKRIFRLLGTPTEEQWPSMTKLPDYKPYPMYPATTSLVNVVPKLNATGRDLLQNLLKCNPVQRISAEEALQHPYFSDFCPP

MAST1 = target: T15, MAST1 (Homo sapiens, UniProt Q9Y2H9); assay: KINOMEscan; assay type: binding; conditions: read-out: %Ctrl @ 10000nM
T15 construct: purchased DiscoverX KINOMEscan

tissue CoA = assay: Mouse efficacy testing: tissue CoA levels; assay type: in vivo
Description: C57Bl6/J mice (8-week-old) were purchased from Jackson Laboratory and were fed either a regular diet (autoclavable rodent breeder diet, Labdiet) or an isocaloric, pantothenic acid-supplemented diet (1000 ppm) for 2 weeks prior to the experiment. The mice were maintained at room temperature 72° ± 2 °F, humidity 50 ± 10% and a 14 h light /10 h dark cycle with the dark cycle starting at 18:00 h. Water was supplied ad libitum. The mice were randomized into the treatment arms to achieve a normal weight distribution. […] The mice were euthanized and tissues harvested 4 h after the last dose. The tissue samples were used for total CoA, pantothenate and pantazine determinations. Blood was collected from euthanized animals, plasma or serum was prepared and stored frozen until analysis. Organs, including liver, forebrain, and hindbrain were quickly excised from euthanized animals and immediately flash frozen in liquid N2 or immersed in RNAlater® (Qiagen) overnight prior to freezing. Forebrain and hindbrain regions were identified. Total CoA was determined using 20–50 mg of tissue (liver, forebrain or hindbrain) homogenized in 2 ml of 1 mM KOH. The pH was adjusted to 12.0 with 0.25 M KOH, and incubated at 55 °C for 2 h[23]. The pH of the sample was adjusted to 8.0, and the samples were derivatized with monobromobimane (mBBr) and analyzed by HPLC equipped with a fluorescence detector.

PLK2 = target: T16, PLK2 (Homo sapiens, UniProt Q9NYY3); assay: KINOMEscan; assay type: binding; conditions: read-out: %Ctrl @ 10000nM
T16 construct: purchased DiscoverX KINOMEscan
T16 sequence (Q9NYY3 whole entry): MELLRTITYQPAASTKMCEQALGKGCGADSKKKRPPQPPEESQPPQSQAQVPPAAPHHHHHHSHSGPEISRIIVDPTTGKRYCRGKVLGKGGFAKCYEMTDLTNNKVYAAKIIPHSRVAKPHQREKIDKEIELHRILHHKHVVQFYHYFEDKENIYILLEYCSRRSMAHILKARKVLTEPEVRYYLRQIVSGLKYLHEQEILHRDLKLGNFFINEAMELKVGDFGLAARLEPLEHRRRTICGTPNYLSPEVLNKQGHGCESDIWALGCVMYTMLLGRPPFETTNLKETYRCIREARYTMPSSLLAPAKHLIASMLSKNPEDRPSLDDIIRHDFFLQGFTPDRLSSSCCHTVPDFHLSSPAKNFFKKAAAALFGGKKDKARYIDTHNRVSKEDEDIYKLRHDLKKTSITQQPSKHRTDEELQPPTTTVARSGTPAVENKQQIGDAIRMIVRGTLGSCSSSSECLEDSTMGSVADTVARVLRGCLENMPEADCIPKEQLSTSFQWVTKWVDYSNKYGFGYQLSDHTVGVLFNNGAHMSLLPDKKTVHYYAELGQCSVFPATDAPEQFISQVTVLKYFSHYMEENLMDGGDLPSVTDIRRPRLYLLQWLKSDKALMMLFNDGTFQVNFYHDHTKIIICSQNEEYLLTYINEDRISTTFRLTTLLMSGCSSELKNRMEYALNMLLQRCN

MAP4K2 = target: T17, MAP4K2 (Homo sapiens, UniProt Q12851); assay: KINOMEscan; assay type: binding; conditions: read-out: %Ctrl @ 10000nM
T17 construct: purchased DiscoverX KINOMEscan

EGFR(E746-A750del) = target: T18, EGFR(E746-A750del) (Homo sapiens, UniProt P00533, DEL746-750); assay: KINOMEscan; assay type: binding; conditions: read-out: %Ctrl @ 10000nM
T18 construct: purchased DiscoverX KINOMEscan
T18 sequence (P00533 with tags, fused parts or gaps DEL746-750 limits assumed): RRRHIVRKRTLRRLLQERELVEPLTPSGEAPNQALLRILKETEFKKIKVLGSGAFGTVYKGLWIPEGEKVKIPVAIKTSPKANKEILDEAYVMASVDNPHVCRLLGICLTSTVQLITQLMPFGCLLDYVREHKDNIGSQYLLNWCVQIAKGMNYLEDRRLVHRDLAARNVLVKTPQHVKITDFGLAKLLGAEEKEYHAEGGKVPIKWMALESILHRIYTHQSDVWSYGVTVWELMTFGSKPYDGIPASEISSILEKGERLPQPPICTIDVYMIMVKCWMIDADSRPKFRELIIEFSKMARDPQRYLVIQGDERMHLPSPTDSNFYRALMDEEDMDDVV

CHEK2 = target: T19, CHEK2 (Homo sapiens, UniProt O96017); assay: KINOMEscan; assay type: binding; conditions: read-out: %Ctrl @ 10000nM
T19 construct: purchased DiscoverX KINOMEscan
T19 sequence (O96017 whole entry): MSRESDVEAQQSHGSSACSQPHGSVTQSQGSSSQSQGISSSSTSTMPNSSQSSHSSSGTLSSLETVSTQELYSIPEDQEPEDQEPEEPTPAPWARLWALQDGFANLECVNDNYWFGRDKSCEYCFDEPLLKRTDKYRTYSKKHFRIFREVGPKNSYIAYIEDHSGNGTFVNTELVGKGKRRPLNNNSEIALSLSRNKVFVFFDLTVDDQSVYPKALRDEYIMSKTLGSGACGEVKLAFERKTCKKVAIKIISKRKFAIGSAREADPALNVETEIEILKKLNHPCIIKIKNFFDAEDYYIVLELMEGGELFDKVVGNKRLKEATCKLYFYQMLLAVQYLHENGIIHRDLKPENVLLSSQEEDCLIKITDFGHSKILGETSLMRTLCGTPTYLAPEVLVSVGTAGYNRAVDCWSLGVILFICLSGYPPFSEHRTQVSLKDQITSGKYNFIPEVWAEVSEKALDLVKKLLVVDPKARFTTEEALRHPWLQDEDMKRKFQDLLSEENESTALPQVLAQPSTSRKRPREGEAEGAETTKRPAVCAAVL

STK39 = target: T20, STK39 (Homo sapiens, UniProt Q9UEW8); assay: KINOMEscan; assay type: binding; conditions: read-out: %Ctrl @ 10000nM
T20 construct: purchased DiscoverX KINOMEscan

CDK4-cyclinD1 = target: T21, CDK4-cyclinD1 (Homo sapiens, UniProt P11802); assay: KINOMEscan; assay type: binding; conditions: read-out: %Ctrl @ 10000nM
T21 construct: purchased DiscoverX KINOMEscan

[2] = target: T22, RPS6KA5(Kin.Dom.2-C-terminal) (Homo sapiens, UniProt O75582); assay: KINOMEscan; assay type: binding; conditions: read-out: %Ctrl @ 10000nM
T22 construct: RPS6KA5(Kin.Dom.2-C-terminal); purchased DiscoverX KINOMEscan

PRKG2 = target: T23, PRKG2 (Homo sapiens, UniProt Q13237); assay: KINOMEscan; assay type: binding; conditions: read-out: %Ctrl @ 10000nM
T23 construct: purchased DiscoverX KINOMEscan

TBK1 = target: T24, TBK1 (Homo sapiens, UniProt Q9UHD2); assay: KINOMEscan; assay type: binding; conditions: read-out: %Ctrl @ 10000nM
T24 construct: purchased DiscoverX KINOMEscan

CAMK2B = target: T25, CAMK2B (Homo sapiens, UniProt Q13554); assay: KINOMEscan; assay type: binding; conditions: read-out: %Ctrl @ 10000nM
T25 construct: purchased DiscoverX KINOMEscan
T25 sequence (Q13554 whole entry): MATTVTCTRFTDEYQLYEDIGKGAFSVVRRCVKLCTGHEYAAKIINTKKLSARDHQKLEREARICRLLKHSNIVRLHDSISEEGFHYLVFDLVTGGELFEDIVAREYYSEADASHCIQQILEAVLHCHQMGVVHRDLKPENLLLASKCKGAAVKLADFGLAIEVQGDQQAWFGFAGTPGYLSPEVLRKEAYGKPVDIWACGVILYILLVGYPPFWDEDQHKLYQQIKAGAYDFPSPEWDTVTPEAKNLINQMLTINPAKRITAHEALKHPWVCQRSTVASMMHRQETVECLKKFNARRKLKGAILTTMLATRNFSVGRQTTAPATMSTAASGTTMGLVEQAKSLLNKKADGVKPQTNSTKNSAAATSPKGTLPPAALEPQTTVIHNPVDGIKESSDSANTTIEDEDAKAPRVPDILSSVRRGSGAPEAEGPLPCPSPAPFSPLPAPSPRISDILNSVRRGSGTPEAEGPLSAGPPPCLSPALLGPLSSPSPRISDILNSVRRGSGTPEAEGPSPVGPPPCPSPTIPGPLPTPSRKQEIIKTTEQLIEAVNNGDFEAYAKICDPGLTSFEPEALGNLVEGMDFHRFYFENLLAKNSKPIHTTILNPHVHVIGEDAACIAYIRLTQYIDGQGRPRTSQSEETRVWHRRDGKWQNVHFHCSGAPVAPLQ

[3] = tested on: 72 cellular proteins known to cause off-target effects; assay: SAFETYscan off-target panel; conditions: 1 and 10 μM
VRK2 = target: T26, VRK2 (Homo sapiens, UniProt Q86Y07); assay: KINOMEscan; assay type: binding; conditions: read-out: %Ctrl @ 10000nM
T26 construct: DNA label for qPCR (T7 phage fusion or DNA tag); purchased DiscoverX scanMAX; host or cells: E. coli BL21-derived (T7 phage) or HEK-293

NEK10 = target: T27, NEK10 (Homo sapiens, UniProt Q6ZWH5); assay: KINOMEscan; assay type: binding; conditions: read-out: %Ctrl @ 10000nM
T27 construct: purchased DiscoverX KINOMEscan
T27 sequence (Q6ZWH5 whole entry): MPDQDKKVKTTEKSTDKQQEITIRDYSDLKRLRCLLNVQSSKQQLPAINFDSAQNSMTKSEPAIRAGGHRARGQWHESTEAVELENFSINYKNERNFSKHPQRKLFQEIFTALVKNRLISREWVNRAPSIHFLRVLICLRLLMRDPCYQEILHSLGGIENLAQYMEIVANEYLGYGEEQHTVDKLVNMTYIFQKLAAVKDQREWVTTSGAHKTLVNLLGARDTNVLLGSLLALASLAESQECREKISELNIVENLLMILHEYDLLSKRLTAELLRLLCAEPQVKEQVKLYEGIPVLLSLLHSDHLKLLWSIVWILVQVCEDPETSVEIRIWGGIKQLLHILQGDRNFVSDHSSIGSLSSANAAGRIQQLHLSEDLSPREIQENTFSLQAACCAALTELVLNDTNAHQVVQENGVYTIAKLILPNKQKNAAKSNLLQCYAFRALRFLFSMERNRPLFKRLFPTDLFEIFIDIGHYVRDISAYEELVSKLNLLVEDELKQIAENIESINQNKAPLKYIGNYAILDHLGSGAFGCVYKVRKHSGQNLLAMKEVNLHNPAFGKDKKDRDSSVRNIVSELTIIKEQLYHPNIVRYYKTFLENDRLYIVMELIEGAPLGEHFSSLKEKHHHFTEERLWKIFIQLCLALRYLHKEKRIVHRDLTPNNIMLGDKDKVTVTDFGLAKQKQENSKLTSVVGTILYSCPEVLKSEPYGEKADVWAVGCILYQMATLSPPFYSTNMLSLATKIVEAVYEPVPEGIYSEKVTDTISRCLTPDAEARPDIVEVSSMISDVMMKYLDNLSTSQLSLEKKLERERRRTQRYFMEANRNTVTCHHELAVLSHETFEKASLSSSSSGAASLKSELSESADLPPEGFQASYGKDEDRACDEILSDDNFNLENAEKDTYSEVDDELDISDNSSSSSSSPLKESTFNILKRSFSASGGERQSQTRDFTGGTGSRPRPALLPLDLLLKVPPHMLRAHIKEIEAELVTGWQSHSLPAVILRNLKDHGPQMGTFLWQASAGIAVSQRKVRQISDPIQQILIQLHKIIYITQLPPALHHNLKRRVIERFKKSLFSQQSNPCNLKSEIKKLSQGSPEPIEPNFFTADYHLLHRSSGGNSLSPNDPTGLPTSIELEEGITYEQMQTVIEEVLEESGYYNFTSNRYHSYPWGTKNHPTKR

SMILES: CC(C)c1ccc(CC(=O)N2CCN(c3ccc(C#N)nn3)CC2)cc1 [PZ-2891, 6-(4-(2-(4-isopropylphenyl)acetyl)piperazin-1-yl)pyridazine-3-carbonitrile]
- remaining binding at 10 µM (PIM2): 96%
- remaining binding at 10 µM (PIP5K2B): 88%
- remaining binding at 10 µM (PIK3CG): 96%
- remaining binding at 10 µM (MLK1): 81%
- half-life (Plasma stability): > 3000 min
- remaining binding at 10 µM (FRK): 86%
- remaining binding at 10 µM (CLK2): 94%
- remaining binding at 10 µM (TGFBR1): 99%
- remaining binding at 10 µM [1]: 100%
- remaining binding at 10 µM (INSRR): 82%
- remaining binding at 10 µM (EGFR(L861Q)): 100%
- remaining binding at 10 µM (MLK3): 80%
- remaining binding at 10 µM (ABL1-nonphosphorylated): 65%
- remaining binding at 10 µM (PRKD3): 66%
- remaining binding at 10 µM (CDK5): 87%
- remaining binding at 10 µM (MAST1): 61%
- increase in total liver CoA (tissue CoA; 30 mg/kg PZ-2891 alone, oral gavage, 5 doses at 12 h intervals): 50%
- increase in liver CoA levels (tissue CoA; 30 mg/kg PZ-2891 plus 200 mg/kg pantothenate, oral gavage, 5 doses at 12 h intervals): 100%
- muscle CoA levels (tissue CoA; 112 ppm PZ-2891 in chow, 1 week): not elevated
- CoA levels in tissues, 1 week chow (tissue CoA; 112 ppm PZ-2891 in chow, 1000 ppm pantothenate, 1 week): elevated in liver, brain, and to a lesser extent, heart
- total CoA in liver, forebrain and hindbrain (tissue CoA; male and female mice, 5 oral doses every 12 h plus 100 mg/kg pantothenate): dose-dependent increase in total CoA
- weights or behavior of treated animals (tissue CoA; one-month treatment in diet): no difference in the weights or behavior
- liver and brain CoA, 4 weeks diet (tissue CoA; series of PZ-2891 doses in diet, 1000 ppm pantothenate, 4 weeks): significantly elevated
- remaining binding at 10 µM (PLK2): 84%
- remaining binding at 10 µM (MAP4K2): 77%
- remaining binding at 10 µM (EGFR(E746-A750del)): 100%
- remaining binding at 10 µM (CHEK2): 79%
- remaining binding at 10 µM (STK39): 70%
- remaining binding at 10 µM (CDK4-cyclinD1): 100%
- remaining binding at 10 µM [2]: 96%
- remaining binding at 10 µM (PRKG2): 76%
- remaining binding at 10 µM (TBK1): 60%
- remaining binding at 10 µM (CAMK2B): 88%
- off-target pharmacological interactions [3]: absence of off-target pharmacological interactions
- remaining binding at 10 µM (VRK2): 70%
- remaining binding at 10 µM (NEK10): 89%

Reference: publication PMC6199309, “A therapeutic approach to pantothenate kinase associated neurodegeneration” (Nature Communications, 2018)
